{
  "source": "patent US20100016163A1",
  "about": "“Adjuvant and dispersant formulations for pesticidal applications” (priority 2007, published 2010)",
  "key": {"Sicklepod": {"system": "Sicklepod", "assay": "Field trial Example 7, % kill", "format": "in vivo", "conditions": "isopropyl ammonium glyphosate 360 g a.e./l", "protocol": "(§1) The C14 DMAPA MeCl Esterquat formulation was prepared as follows: About 32.3 grams of a solution of the isopropyl ammonium salt of glyphosate, which was about 46.5% by weight acid equivalent (a.e.) of glyphosate and about 6.2 grams of deionized water, were added in a 4-ounce jar. Then, about 7.5 grams of the C14 DMAPA MeCl Esterquat and about 4 grams of propylene glycol were slowly added to the jar with stirring.\n(§2) Samples of the formulations as made above were applied to subject plants at two application rates, 90% and 45% of the label rate of RoundUp® Ultra, available from Monsanto Company, St. Louis, Mo. RoundUp® Ultra contains about 360 g a.e./l of isopropyl ammonium glyphosate salt and about 15% by weight of a blend of surfactants. The precise identity of the surfactants has not been disclosed.\n(§3) Eight plant species were selected for the study. They include (1) Bamyardgrass, (2) Redroot pigweed, (3) Morning glory ivyleaf, (4) Sicklepod, (5) Panicum, (6) Crabgrass, (7) Velvetleaf, and (8) Sunflower. The tests were performed in a randomized complete block design with 5 replicates of each species of plant. Plants were grown in square plastic pots, 3.75 inches×3.75 inches and 3.125 inches deep. Prior to treatment, 5 replicate pots were indiscriminately selected for each treatment and plant species. Treatments were applied as foliar applications with a hand pump sprayer equipped with 1 nozzle calibrated to deliver 15 gallons per acre. All spraying tests included a set of 5 untreated control plants from each species."}, "Barnyardgrass": {"system": "Barnyardgrass", "assay": "Field trial Example 7, % kill", "format": "in vivo", "conditions": "isopropyl ammonium glyphosate 360 g a.e./l", "protocol": "as §1, §2, §3"}, "Velvetleaf": {"system": "Velvetleaf", "assay": "Field trial Example 7, % kill", "format": "in vivo", "conditions": "isopropyl ammonium glyphosate 360 g a.e./l", "protocol": "as §1, §2, §3"}, "Morning glory, ivyleaf": {"system": "Morning glory, ivyleaf", "assay": "Field trial Example 7, % kill", "format": "in vivo", "conditions": "isopropyl ammonium glyphosate 360 g a.e./l", "protocol": "as §1, §2, §3"}, "Crabgrass": {"system": "Crabgrass", "assay": "Field trial Example 7, % kill", "format": "in vivo", "conditions": "isopropyl ammonium glyphosate 360 g a.e./l", "protocol": "as §1, §2, §3"}, "Sunflower": {"system": "Sunflower", "assay": "Field trial Example 7, % kill", "format": "in vivo", "conditions": "isopropyl ammonium glyphosate 360 g a.e./l", "protocol": "as §1, §2, §3"}, "Redroot pigweed": {"system": "Redroot pigweed", "assay": "Field trial Example 7, % kill", "format": "in vivo", "conditions": "isopropyl ammonium glyphosate 360 g a.e./l", "protocol": "as §1, §2, §3"}, "Panicum, fall": {"system": "Panicum, fall", "assay": "Field trial Example 7, % kill", "format": "in vivo", "conditions": "isopropyl ammonium glyphosate 360 g a.e./l", "protocol": "as §1, §2, §3"}, "[1]": {"assay": "Surface tension, Gibbs isotherm (Kibron μTrough S)", "format": "physicochemical", "conditions": "FIG. 3", "from_the_text": "The surface tension of a solution can give important information about its behavior as a surfactant. Measuring the surface tension of a series of aqueous solutions of a molecule and plotting the measured surface tension results versus the logarithm of the concentrations of the series of aqueous solutions yields a plot known as a Gibbs isotherm. From the Gibbs isotherm, one can obtain the critical micelle concentration (CMC) of a surfactant as well as the surface tension at the CMC, two parameters that can indicate the behavior of a surfactant.\nFor each molecule studied, 14 solutions were prepared so that each solution was half the concentration of the previous solution. Another solution that consisted of only deionized water was used as a reference. Therefore, a total of 15 solutions were studied for each molecule."}, "all 8 species": {"system": "all 8 species", "assay": "Field trial of phytotoxicity enhancement, isopropyl ammonium glyphosate formulations (Example 7), sum over species", "format": "in vivo", "conditions": "foliar, isopropyl ammonium glyphosate 360 g a.e./l, 15% surfactant", "protocol": "as §1, §2\nas §3, with “Treatments were applied as foliar applications with a hand pump sprayer equipped with 1 nozzle calibrated to deliver 15 gallons per acre. All spraying tests included a set of 5 untreated control plants from each species.” left out"}, "[2]": {"conditions": "acid form, 25° C., cited from earlier work"}},
  "note": "Like-named read-outs stand apart in the source and are kept apart here.",
  "data": [
    {"molecule": "CCCCCCCCCCCCCC(=O)NCCC[N+](C)(C)C.[Cl-]", "note": "[C14 DMAPA MeCl Esterquat]", "values": [
      {"measurement": "% kill", "setting": "Sicklepod; high (90%) application rate", "result": 33, "unit": "%"},
      {"measurement": "% kill", "setting": "Sicklepod; low (45%) application rate", "result": 22, "unit": "%"},
      {"measurement": "% kill", "setting": "Barnyardgrass; high (90%) application rate", "result": 100, "unit": "%"},
      {"measurement": "% kill", "setting": "Barnyardgrass; low (45%) application rate", "result": 99, "unit": "%"},
      {"measurement": "% kill", "setting": "Velvetleaf; high (90%) application rate", "result": 96, "unit": "%"},
      {"measurement": "% kill", "setting": "Velvetleaf; low (45%) application rate", "result": 96, "unit": "%"},
      {"measurement": "% kill", "setting": "Morning glory, ivyleaf; high (90%) application rate", "result": 84, "unit": "%"},
      {"measurement": "% kill", "setting": "Morning glory, ivyleaf; low (45%) application rate", "result": 53, "unit": "%"},
      {"measurement": "% kill", "setting": "Crabgrass; high (90%) application rate", "result": 100, "unit": "%"},
      {"measurement": "% kill", "setting": "Crabgrass; low (45%) application rate", "result": 100, "unit": "%"},
      {"measurement": "% kill", "setting": "Sunflower; high (90%) application rate", "result": 100, "unit": "%"},
      {"measurement": "% kill", "setting": "Sunflower; low (45%) application rate", "result": 100, "unit": "%"},
      {"measurement": "% kill", "setting": "Redroot pigweed; high (90%) application rate", "result": 100, "unit": "%"},
      {"measurement": "% kill", "setting": "Redroot pigweed; low (45%) application rate", "result": 100, "unit": "%"},
      {"measurement": "% kill", "setting": "Panicum, fall; high (90%) application rate", "result": 95, "unit": "%"},
      {"measurement": "% kill", "setting": "Panicum, fall; low (45%) application rate", "result": 90, "unit": "%"},
      {"measurement": "surface activity, compared with C14 DMAPA MeCl Esterquat", "setting": "[1]", "result": "higher surface activity"},
      {"measurement": "Sum of % kill of all 8 species at low (45%) application rate", "setting": "all 8 species; 45% of RoundUp Ultra label rate", "result": 660, "unit": "%"},
      {"measurement": "Sum of % kill of all 8 species at high (90%) application rate", "setting": "all 8 species; 90% of RoundUp Ultra label rate", "result": 708, "unit": "%"}
    ]},
    {"molecule": "O=C(O)CNCP(=O)(O)O", "note": "[Glyphosate, N-(phosphonomethyl)glycine]", "values": [
      {"measurement": "solubility in water", "setting": "[2]", "result": 1.16, "unit": "% by weight"},
      {"measurement": "solubility in water", "setting": "[2]; listed as glyphosate", "result": "about 1.16 % by weight"}
    ]}
  ]
}
